# According to PMC5216056 (Nature Communications, 2017):
# Legend:
# H3 (h) = target: T1, H3 (h) (Homo sapiens, UniProt Q9Y5N1); assay: CEREP panel; format: binding; conditions: 10 µM
# T1 construct: CEREP (contract assay)
# [1] = phosphate buffer pH 6.5, from DMSO stock
# D2S (h) = target: T2, D2S (h) (Homo sapiens, UniProt P14416); assay: CEREP panel; format: binding; conditions: 10 µM
# T2 construct: CEREP (contract assay)
# dopamine transporter (h) = target: T3, dopamine transporter (h) (Homo sapiens, UniProt Q01959); assay: CEREP panel; format: binding
# T3 construct: CEREP (contract assay)
# T3 sequence (Q01959 whole entry): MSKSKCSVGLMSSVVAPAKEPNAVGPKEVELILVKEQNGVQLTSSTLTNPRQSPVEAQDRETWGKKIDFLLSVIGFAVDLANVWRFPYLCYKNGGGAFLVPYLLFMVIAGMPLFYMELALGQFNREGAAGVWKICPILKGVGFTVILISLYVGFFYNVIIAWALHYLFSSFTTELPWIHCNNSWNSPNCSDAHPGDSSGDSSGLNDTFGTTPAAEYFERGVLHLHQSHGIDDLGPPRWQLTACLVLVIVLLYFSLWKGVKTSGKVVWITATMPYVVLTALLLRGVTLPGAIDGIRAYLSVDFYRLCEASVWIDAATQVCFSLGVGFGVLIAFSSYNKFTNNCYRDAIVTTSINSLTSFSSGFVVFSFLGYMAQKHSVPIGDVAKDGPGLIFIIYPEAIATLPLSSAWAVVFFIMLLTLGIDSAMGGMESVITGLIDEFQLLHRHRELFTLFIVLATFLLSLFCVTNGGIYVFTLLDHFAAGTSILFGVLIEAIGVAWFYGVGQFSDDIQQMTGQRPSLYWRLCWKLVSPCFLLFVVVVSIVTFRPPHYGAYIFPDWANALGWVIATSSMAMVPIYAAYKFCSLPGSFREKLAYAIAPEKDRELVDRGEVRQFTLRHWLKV
# hABHD12 = target: T4, hABHD12 (Homo sapiens, UniProt Q8N2K0); assay: ABHD12 activity; format: biochemical; conditions: read-out: ABHD12 % inhibition
# T4 construct: expressed in transfected cells
# T4 sequence (Q8N2K0 1-398): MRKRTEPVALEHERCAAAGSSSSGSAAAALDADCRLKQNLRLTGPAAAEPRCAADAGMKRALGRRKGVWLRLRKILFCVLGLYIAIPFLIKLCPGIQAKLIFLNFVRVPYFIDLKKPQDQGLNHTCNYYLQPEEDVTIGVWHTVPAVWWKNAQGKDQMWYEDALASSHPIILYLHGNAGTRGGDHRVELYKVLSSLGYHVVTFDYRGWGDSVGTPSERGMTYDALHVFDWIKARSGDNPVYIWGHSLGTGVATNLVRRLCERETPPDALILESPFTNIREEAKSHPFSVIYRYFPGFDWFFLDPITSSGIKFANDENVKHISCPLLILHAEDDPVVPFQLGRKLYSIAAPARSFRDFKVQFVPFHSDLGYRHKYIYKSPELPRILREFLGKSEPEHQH
# dopamine uptake reporter = target: T5, dopamine uptake reporter (Homo sapiens, UniProt Q01959); assay: Dopamine uptake full dose-response (CEREP follow-up)
# T5 construct: CEREP
# T5 sequence (Q01959 whole entry): as the sequence (Q01959 whole entry) above
# A2B = target: T6, A2B (Homo sapiens, UniProt P29275); assay: CEREP panel; format: binding
# T6 construct: CEREP
# T6 sequence (P29275 whole entry): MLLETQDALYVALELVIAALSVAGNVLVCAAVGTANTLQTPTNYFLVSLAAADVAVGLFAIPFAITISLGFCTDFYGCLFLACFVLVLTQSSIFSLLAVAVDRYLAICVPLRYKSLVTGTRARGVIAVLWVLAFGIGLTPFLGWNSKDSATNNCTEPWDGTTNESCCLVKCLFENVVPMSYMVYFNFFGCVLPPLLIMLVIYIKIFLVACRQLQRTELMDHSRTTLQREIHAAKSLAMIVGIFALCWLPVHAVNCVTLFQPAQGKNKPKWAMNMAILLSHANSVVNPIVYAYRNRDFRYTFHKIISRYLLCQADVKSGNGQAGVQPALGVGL
# B1 = target: T7, B1 (Homo sapiens, UniProt P46663); assay: CEREP panel; format: binding
# T7 construct: CEREP
# T7 sequence (P46663 whole entry): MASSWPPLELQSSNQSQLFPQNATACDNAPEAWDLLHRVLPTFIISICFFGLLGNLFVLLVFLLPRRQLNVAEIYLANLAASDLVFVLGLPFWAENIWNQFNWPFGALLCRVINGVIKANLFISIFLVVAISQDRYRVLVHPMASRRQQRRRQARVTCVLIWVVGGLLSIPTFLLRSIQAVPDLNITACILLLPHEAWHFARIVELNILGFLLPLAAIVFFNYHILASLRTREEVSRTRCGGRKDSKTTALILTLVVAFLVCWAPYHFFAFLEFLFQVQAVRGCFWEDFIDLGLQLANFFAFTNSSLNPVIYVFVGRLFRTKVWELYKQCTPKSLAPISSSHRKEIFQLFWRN
# BLT1 (LTB4) = target: T8, BLT1 (LTB4) (Homo sapiens, UniProt Q15722); assay: CEREP panel; format: binding
# T8 construct: CEREP
# T8 sequence (Q15722 whole entry): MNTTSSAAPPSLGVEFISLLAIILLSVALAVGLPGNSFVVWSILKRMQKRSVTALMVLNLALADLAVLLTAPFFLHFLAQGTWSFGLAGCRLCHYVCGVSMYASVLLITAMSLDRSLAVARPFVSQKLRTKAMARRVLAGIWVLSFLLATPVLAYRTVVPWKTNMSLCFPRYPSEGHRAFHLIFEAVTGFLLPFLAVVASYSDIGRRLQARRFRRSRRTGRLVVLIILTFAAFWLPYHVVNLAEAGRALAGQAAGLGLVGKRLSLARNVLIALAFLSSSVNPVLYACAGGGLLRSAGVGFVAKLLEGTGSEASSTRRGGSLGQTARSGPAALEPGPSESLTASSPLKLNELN
# MC1 = target: T9, MC1 (Mus musculus, UniProt Q01727); assay: CEREP panel; format: binding
# T9 construct: CEREP (contract assay)
# T9 sequence (Q01727 whole entry): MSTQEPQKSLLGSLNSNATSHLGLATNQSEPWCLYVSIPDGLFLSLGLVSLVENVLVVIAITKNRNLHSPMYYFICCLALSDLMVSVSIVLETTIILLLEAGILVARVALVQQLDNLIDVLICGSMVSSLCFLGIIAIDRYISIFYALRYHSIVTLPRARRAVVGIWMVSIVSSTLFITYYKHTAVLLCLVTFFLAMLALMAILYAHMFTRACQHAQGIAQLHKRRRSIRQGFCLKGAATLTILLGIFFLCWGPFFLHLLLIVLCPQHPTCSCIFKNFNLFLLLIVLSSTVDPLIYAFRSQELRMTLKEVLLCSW
# MC3 = target: T10, MC3 (Homo sapiens, UniProt P41968); assay: CEREP panel; format: binding
# T10 construct: CEREP (contract assay)
# T10 sequence (P41968 whole entry): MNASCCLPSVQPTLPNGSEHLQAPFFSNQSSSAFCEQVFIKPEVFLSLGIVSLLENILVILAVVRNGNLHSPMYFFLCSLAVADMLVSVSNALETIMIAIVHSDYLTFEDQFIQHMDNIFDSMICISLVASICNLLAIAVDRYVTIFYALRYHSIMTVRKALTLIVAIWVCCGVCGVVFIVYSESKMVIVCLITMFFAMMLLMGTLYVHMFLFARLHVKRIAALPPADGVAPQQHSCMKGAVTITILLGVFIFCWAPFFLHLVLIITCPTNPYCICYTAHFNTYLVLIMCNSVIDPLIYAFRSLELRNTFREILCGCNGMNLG
# motilin = target: T11, motilin (Homo sapiens, UniProt O43193); assay: CEREP panel; format: binding
# T11 construct: CEREP (contract assay)
# T11 sequence (O43193 whole entry): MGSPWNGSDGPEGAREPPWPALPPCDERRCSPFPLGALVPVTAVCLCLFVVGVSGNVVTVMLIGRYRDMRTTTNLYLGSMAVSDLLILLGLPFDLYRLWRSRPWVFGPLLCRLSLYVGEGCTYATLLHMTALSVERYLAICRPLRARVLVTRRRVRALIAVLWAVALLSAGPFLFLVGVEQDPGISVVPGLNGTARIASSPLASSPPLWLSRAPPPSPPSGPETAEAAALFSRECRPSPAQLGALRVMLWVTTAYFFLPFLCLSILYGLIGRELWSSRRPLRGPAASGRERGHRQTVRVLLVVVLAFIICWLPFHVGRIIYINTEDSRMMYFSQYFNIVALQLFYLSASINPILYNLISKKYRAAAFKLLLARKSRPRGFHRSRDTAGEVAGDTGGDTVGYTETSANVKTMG
# T1 sequence (Q9Y5N1 whole entry): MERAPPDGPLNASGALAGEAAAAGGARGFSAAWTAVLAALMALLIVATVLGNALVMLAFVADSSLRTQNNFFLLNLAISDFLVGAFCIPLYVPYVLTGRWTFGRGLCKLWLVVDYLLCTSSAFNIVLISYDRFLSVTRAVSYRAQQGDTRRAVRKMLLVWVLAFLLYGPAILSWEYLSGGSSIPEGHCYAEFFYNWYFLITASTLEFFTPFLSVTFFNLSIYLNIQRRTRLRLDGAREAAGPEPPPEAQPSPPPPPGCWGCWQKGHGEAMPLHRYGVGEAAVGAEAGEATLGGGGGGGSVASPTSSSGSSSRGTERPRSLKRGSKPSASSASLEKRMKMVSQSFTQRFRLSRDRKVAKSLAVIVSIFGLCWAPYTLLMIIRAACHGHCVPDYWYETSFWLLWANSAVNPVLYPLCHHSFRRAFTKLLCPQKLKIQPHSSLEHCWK
# T2 sequence (P14416 1-414 isoform P14416-2): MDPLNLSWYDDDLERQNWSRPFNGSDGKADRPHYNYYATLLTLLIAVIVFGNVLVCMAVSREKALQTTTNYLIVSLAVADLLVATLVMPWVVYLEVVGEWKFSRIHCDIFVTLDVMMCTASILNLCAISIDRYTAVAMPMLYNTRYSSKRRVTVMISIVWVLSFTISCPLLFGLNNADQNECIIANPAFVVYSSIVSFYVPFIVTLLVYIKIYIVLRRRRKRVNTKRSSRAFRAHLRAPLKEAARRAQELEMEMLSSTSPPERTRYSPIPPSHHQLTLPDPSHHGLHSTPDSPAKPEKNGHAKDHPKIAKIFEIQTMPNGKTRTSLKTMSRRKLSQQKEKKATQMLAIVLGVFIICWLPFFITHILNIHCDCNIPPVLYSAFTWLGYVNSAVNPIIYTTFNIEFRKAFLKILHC
smiles,measurement,setting,value
CN1CCCC[C@H]1Cn1cc(C(=O)c2cc([N+](=O)[O-])ccc2I)c2ccccc21 [(S)-AM1241],% inhibition H3 (h),H3 (h),87%
CCCCCCC(C)(C)c1ccc([C@@H]2C[C@H](O)CC[C@H]2CCCO)c(O)c1 [CP55940],Kinetic solubility,[1],soluble
Cc1ccc2c(c1)Cc1c(C(=O)NN3CCCCC3)nn(-c3ccc(Cl)cc3Cl)c1-2 [Gp-1a],% inhibition D2S (h),D2S (h),53%
CCCCCCC(C)(C)c1cc(OC)c([C@@H]2C=C(CO)[C@@H]3C[C@H]2C3(C)C)c(OC)c1 [HU308],inhibition at 10 µM,dopamine transporter (h),71%
same,inhibition at 5 µM,hABHD12,< 25%
CCCCCCC(C)(C)c1cc(OC)c(C2=C[C@H]3CC[C@]2(CO)C3(C)C)c(OC)c1 [HU910],IC50,dopamine uptake reporter,1400 nM
Cc1c(C(=O)NN2CCCCC2)nn(-c2ccc(Cl)cc2Cl)c1-c1ccc(Cl)cc1 [SR141716A],inhibition at 10 µM,A2B,-7%
same,inhibition at 10 µM,B1,-3%
same,inhibition at 10 µM,BLT1 (LTB4),14%
same,inhibition at 10 µM,MC1,10%
same,inhibition at 10 µM,MC3,53%
same,inhibition at 10 µM,motilin,25%
